Laboratory results taken from patent publication US20150284689A1, “STRATEGY FOR ENGINEERING VARIOUS 3D TISSUES, ORGANOIDS AND VASCULATURE” (THE REGENTS OF THE UNIVERSITY OF CALIFORNIA, priority 2012, published 2015).

Tests used:
MDCK and mIMCD cells = details: three-dimensional cultures of MDCK and mIMCD cells; cited from earlier work
cultured mesenchyme = test: cultured isolated mesenchyme, induction/differentiation; format: cell-based; details: isolated mesenchyme cultured in vitro
[1] = tested on: isolated ureteric bud, Wolffian duct bud; test: isolated ureteric bud / Wolffian duct culture in biocompatible matrix, branching morphogenesis; format: cell-based; details: isolated UB/WD separated from MM, in Matrigel/collagen gel
Excerpt: This isolated cell culture system can serve as a powerful assay system since it directly assesses the effect of soluble factors on cell morphogenesis and tubulogenesis.
As discussed herein, the disclosure provides methods and compositions whereby isolated budding epethelia (e.g., UBs, WDs, or UBs and WDs) can be co-cultured and stimulated by extrinsic factors to induce branching. These branching buds can then be combined with a tissue specific mesenchymal cell population to develop a desired tissue (e.g., combined with metanephric mesenchyme to produce kidney tissue). For example, whole isolated intact UB, WD, or UB and ND (cleanly separated from surrounding MM) can be induced to undergo branching morphogenesis in vitro in a manner similar to UB, WD, or UB and WD culture. Suspension of the isolated UBs, WDs, or UBs and WDs within, or on, a natural or artificial biocompatible substrate (e.g., Matrigel/collagen gel) and when exposed to a mixture of mesenchyme-cultured media augmented with GDNF, results in the isolated unbranched UB, WD, or UB and WD rapidly forming a polarized, extensively branched structure with an internal lumen. […] This modulation is typically branch-promoting, elongation promoting, or branch-inhibiting.
The culture system and methods of the disclosure provide toe ability to propagate the isolated UB, WD, or UB and WD in vitro through several generations. For example, isolated stem cells, UB, WD, or any combination thereof are cultured in vitro and induced to undergo branching morphogenesis in the presence of BSN-CM or pleiotrophin and GDNF or pleiotrphin, FGF1, and GDNF. After 8 days, the cultured bud is subdivided into approximate 3rds and re-suspended within a suitable biocompatible matrix (matrigel/collagen gel). This 2nd generation bud is further subdivided after another 8 days of culture and the 3rd generation bud is cultured for 8 days (thus yielding at least 9 subdivided buds from one progenitor bud) (e.g., see FIG. 9A-B). These subsequent clonal generations of cultured UB, WD, or UB and WD retain the ability of the progenitor bud to induce mesenchyme upon in vitro recombination. The buds also retained the capacity to form cohesive conduits with the mesenchymally-derived tubules that they induced. Thus, the disclosure provides the ability to develop and propagate a clonal, expanded, and long-lived colony of ureteric bud, Wolffian duct bud, or ureteric and Wolffian duct buds, derived from a single progenitor bud that retains the properties of the progenitor. Using similar techniques with the MM, it is possible to develop colonies of mesenchyme derived from a single progenitor mesenchyme that can then be recombined with a propagated UB, WD, or UB and WD.

HGF: Hepatocyte growth factor
formation of branching tubular structures with lumens (MDCK and mIMCD cells): induce the formation of branching tubular structures with lumens

FGF2: growth factor present in UB/WD conditioned media
effect on cultured mesenchyme (mesenchymal-to-epithelial transformation, survival, differentiation) (cultured mesenchyme): appear to promote survival but not differentiation of mesenchyme

LIF: leukemia-inhibitory factor, isolated from UB, WD conditioned media
effect on cultured mesenchyme (mesenchymal-to-epithelial transformation, survival, differentiation) (cultured mesenchyme): induce mesenchymal-to-epithelial transformation of cultured mesenchyme

Endostatin
effect on branching morphogenesis of isolated UB, WD [1]: selectively inhibits branching of the UB, WD, or UB and WD

FGF1: fibroblast growth factor-1
effect on branching morphogenesis of isolated UB, WD [1]: induced the formation of elongated stern cells, UB, ND, or any combination thereof branching stalks

B1: pleiotrophin: polypeptide in active morphogenetic fraction of BSN-CM; fibroblast proliferative and neurite outgrowth-promoting factor (protein, UniProt P21246 33-168, looked up)
Pleiotrophin: GKKEKPEKKVKKSDCGEWQWSVCVPTSGDCGLGTREGTRTGAECKQTMKTQRCKIPCNWKKQFGAECKYQFQAWGECDLNTALKTRTGSLKRALHNAECQKTVTISKPCGKLTKPKPQAESKKKKKEGKKQEKMLD
effect on branching morphogenesis of isolated UB, WD [1]: induces branching morphogenesis of the whole ureteric bud, Wolffian duct bud, or ureteric and Wolffian duct bud

B2: FGF7: fibroblast growth factor-7 (protein, UniProt P21781 32-194, looked up)
Fibroblast growth factor 7: CNDMTPEQMATNVNCSSPERHTRSYDYMEGGDIRVRRLFCRTQWYLRIDKRGKVKGTQEMKNNYNIMEIRTVAVGIVAIKGVESEFYLAMNKEGKLYAKKECNEDCNFKELILENHYNTYASAKWTHNGGEMFVALNQKGIPVRGKKTKKEQKTAHFLPMAIT
effect on branching morphogenesis of isolated UB, WD [1]: induced amorphous buds displaying nonselective proliferation with little distinction between stalks and ampullae
